Measurements published in ChEMBL document CHEMBL1697781, “Assessment of the health effects of chemicals in humans: II. Construction of an adverse effects database for QSAR modeling” (Curr Drug Discov Technol, 2004).

What was measured:
Settings in all cases: human; call rule not given here
Hepatotoxicity [1] = assay: FDA HLAED, liver enzyme composite activity
Hepatotoxicity [2] = assay: FDA HLAED, alkaline phosphatase increase
Hepatotoxicity [3] = assay: FDA HLAED, serum glutamic oxaloacetic transaminase (SGOT) increase
Hepatotoxicity [4] = assay: FDA HLAED, serum glutamic pyruvic transaminase (SGPT) increase
Hepatotoxicity [5] = assay: FDA HLAED, lactate dehydrogenase (LDH) increase
Hepatotoxicity [6] = assay: FDA HLAED, gamma-glutamyl transferase (GGT) increase
Wherever GGT Increase - Index Value is given: reference of the scale not given here.
Wherever LDH Increase - Index Value is given: reference of the scale not given here.

Row | Structure (SMILES) | Composite Activity - Active (Hepatotoxicity [1]) | Composite Activity - Marginal (Hepatotoxicity [1]) | Composite Activity - Score (Hepatotoxicity [1]) | Alkaline Phosphatase Increase - Activity Score (Hepatotoxicity [2]) | Alkaline Phosphatase Increase - Index Value (Hepatotoxicity [2]) | Alkaline Phosphatase Increase - Number of Reports (Hepatotoxicity [2]) | SGOT Increase - Activity Score (Hepatotoxicity [3]) | SGOT Increase - Index Value (Hepatotoxicity [3]) | SGOT Increase - Number of Reports (Hepatotoxicity [3]) | SGPT Increase - Activity Score (Hepatotoxicity [4]) | SGPT Increase - Index Value (Hepatotoxicity [4]) | SGPT Increase - Number of Reports (Hepatotoxicity [4]) | LDH Increase - Activity Score (Hepatotoxicity [5]) | LDH Increase - Index Value (Hepatotoxicity [5]) | LDH Increase - Number of Reports (Hepatotoxicity [5]) | GGT Increase - Activity Score (Hepatotoxicity [6]) | GGT Increase - Index Value (Hepatotoxicity [6]) | GGT Increase - Number of Reports (Hepatotoxicity [6]) | further results
1 | Nc1ccn([C@@H]2CS[C@H](CO)O2)c(=O)n1 [LAMIVUDINE] | 2 | 0 | Active | Inactive | 2.1 | >= 4 | Active | 8.7 | >= 4 | Active | 9 | >= 4 | Inactive | 2.1 | >= 4 | Inactive | 1.7 | >= 4 | –
2 | Nc1nnc(-c2cccc(Cl)c2Cl)c(N)n1 [LAMOTRIGINE] | 2 | 1 | Active | Inactive | 0.5 | < 4 | Active | 4 | >= 4 | Active | 4 | >= 4 | Marginally Active | 3 | >= 4 | Inactive | 2 | < 4 | –
3 | Cc1c(OCC(F)(F)F)ccnc1C[S+]([O-])c1nc2ccccc2[nH]1 (stereo unspecified) [LANSOPRAZOLE] | 0 | 0 | Inactive | Inactive | 0.5 | < 4 | Inactive | 0.9 | >= 4 | Inactive | 1.2 | >= 4 | Inactive | 0.5 | < 4 | Inactive | 1.1 | >= 4 | –
4 | CC(C)OC(=O)CCC/C=C\C[C@@H]1[C@@H](CC[C@@H](O)CCc2ccccc2)[C@H](O)C[C@@H]1O [LATANOPROST] | 0 | 0 | Inactive | Inactive | 0.2 | < 4 | Inactive | 0.2 | < 4 | Inactive | 0 | < 4 | Inactive | 0 | < 4 | Inactive | 0 | < 4 | –
5 | c1ccc([C@H]2CN3CCSC3=N2)cc1 [LEVAMISOLE] | – | – | – | Active | 38.3 | >= 4 | Active | 26.5 | >= 4 | Inactive | 8.8 | < 4 | Active | 29.4 | >= 4 | Inactive | 5.9 | < 4 | Composite Activity - Active (Hepatotoxicity [1]; Liver): 3; Composite Activity - Marginal (Hepatotoxicity [1]; Liver): 0; Composite Activity - Score (Hepatotoxicity [1]; Liver): Active
6 | CC(C)(C)NC[C@H](O)COc1cccc2c1CCCC2=O [LEVOBUNOLOL] | 0 | 0 | Inactive | Inactive | 0 | < 4 | Inactive | 0 | < 4 | Inactive | 0 | < 4 | Inactive | 0 | < 4 | Inactive | 0 | < 4 | –
7 | C[C@@H]1CN([C@H]2CC[C@](C#N)(c3ccc(F)cc3)CC2)CC[C@]1(C(=O)O)c1ccccc1 [LEVOCABASTINE] | 0 | 0 | Inactive | Inactive | 0 | < 4 | Inactive | 0 | < 4 | Inactive | 0 | < 4 | Inactive | 0 | < 4 | Inactive | 0 | < 4 | –
8 | C[N+](C)(C)C[C@H](O)CC(=O)[O-] [LEVOCARNITINE] | 0 | 0 | Inactive | Inactive | 0 | < 4 | Inactive | 0 | < 4 | Inactive | 0 | < 4 | Inactive | 0 | < 4 | Inactive | 0 | < 4 | –
9 | C[C@H]1COc2c(N3CCN(C)CC3)c(F)cc3c(=O)c(C(=O)O)cn1c23.C[C@H]1COc2c(N3CCN(C)CC3)c(F)cc3c(=O)c(C(=O)O)cn1c23.O [LEVOFLOXACIN] | 0 | 0 | Inactive | Inactive | 0 | < 4 | Inactive | 0 | < 4 | Inactive | 0 | < 4 | Inactive | 0 | < 4 | Inactive | 0 | < 4 | –
10 | C#C[C@]1(O)CC[C@H]2[C@@H]3CCC4=CC(=O)CC[C@@H]4[C@H]3CC[C@@]21CC [LEVONORGESTREL] | – | – | – | Active | 34 | >= 4 | Active | 39.7 | >= 4 | Active | 22.7 | >= 4 | Active | 28.3 | >= 4 | Active | 34 | >= 4 | Composite Activity - Active (Hepatotoxicity [1]; Liver): 5; Composite Activity - Marginal (Hepatotoxicity [1]; Liver): 0; Composite Activity - Score (Hepatotoxicity [1]; Liver): Active
11 | NCCCC[C@H](N[C@@H](CCc1ccccc1)C(=O)O)C(=O)N1CCC[C@H]1C(=O)O [LISINOPRIL ANHYDROUS] | 0 | 0 | Inactive | Inactive | 2 | >= 4 | Inactive | 1.5 | >= 4 | Inactive | 1.4 | >= 4 | Inactive | 1.2 | >= 4 | Inactive | 1 | >= 4 | –
12 | N#Cc1cc(NC(=O)C(=O)O)c(Cl)c(NC(=O)C(=O)O)c1 [LODOXAMIDE] | 0 | 0 | Inactive | Inactive | 0 | < 4 | Inactive | 0 | < 4 | Inactive | 0 | < 4 | Inactive | 0 | < 4 | Inactive | 0 | < 4 | –
